Several values for one entry are separate records, joined by “and”; a condition that tells them apart may be missing. Equal values may be shown once.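 The compound was tested at five concentrations on cells cultured in 96-well plates, with a 48-hour exposure period. Abbreviation: GI50, concentration required for 50% inhibition of growth. TGI: total growth inhibition.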
Columns and labels:
Assay in all cases: DTP human tumour cell line panel, 48 h
[1] = tested on: NCI-H460 lung
[2] = tested on: KM12 colon
[3] = tested on: A549 NSCLC
[4] = tested on: SN12C renal
[5] = tested on: MOLT-4 leukemia
[6] = tested on: HT29 colon
[7] = tested on: BT-549 breast
[8] = tested on: UACC-257 melanoma
[9] = tested on: HCT-15 colon
[10] = tested on: U251 CNS

SMILES	GI50 [1]	TGI [1]	GI50 [2]	TGI [2]	GI50 [3]	TGI [3]	GI50 [4]	TGI [4]	GI50 [5]	TGI [5]	GI50 [6]	TGI [6]	GI50 [7]	TGI [7]	GI50 [8]	TGI [8]	GI50 [9]	TGI [9]	GI50 [10]	TGI [10]
C#CCOc1cccc(-c2ncnc3cc(NC(=O)CCl)ccc23)c1	0.038 µM	1.45 µM	0.622 µM	3.2 µM	0.451 µM	3.96 µM	0.115 µM	1.41 µM	0.043 µM	> 100 µM	0.0502 µM	1.49 µM	0.849 µM	2.31 µM	1.64 µM	5.19 µM	0.0179 µM	1.71 µM	0.149 µM	2.76 µM
CCCC(=O)NC1=C(Cl)C(=O)c2ccccc2C1=O	–	20 µM	–	15.2 µM	–	16.9 µM	–	31 µM	–	7.2 µM	–	27.7 µM	–	16.7 µM	–	14 µM	–	12.2 µM	–	15.3 µM
C=C1C(=O)O[C@H]2C[C@@H]1CC/C(C)=C/CC/C(C)=C/CC[C@H]2C	23.2 µM	> 59 µM	18.1 µM	44.4 µM	9.73 µM	33 µM	20.6 µM	39 µM	10.6 µM	> 24.6 µM	28.3 µM	> 100 µM	17.1 µM	41.5 µM	11.5 µM	29.4 µM	15.7 µM	32.9 µM	14.6 µM	28.3 µM
C=C(C)C(=O)O[C@H]1C[C@@]23O[C@@H]2CCC(=C[C@H]2OC(=O)C(=C)[C@H]12)COC3O (stereo partly specified)	–	> 100 µM	–	> 100 µM	–	> 100 µM	–	> 100 µM	–	92.2 µM	–	> 100 µM	–	> 100 µM	–	> 100 µM	–	43.5 µM	–	> 100 µM
[Cl][Hg][Cl]	15.7 µM	35.5 µM	16.8 µM	31.6 µM	20.2 µM	39.3 µM	16.1 µM	29.6 µM	4.08 µM	> 37.7 µM	16.1 µM	36.3 µM	20.3 µM	34.8 µM	17.7 µM	34.9 µM	15.8 µM	30.1 µM	6.25 µM	19.8 µM
O=C(CO[N+](=O)[O-])Nc1ccc(C(=O)/C=C/c2ccc(Cl)cc2)cc1	12.7 µM	54.9 µM	1.54 µM	3.1 µM	5.71 µM	20.6 µM	3.14 µM	14.1 µM	4.68 µM	69.4 µM	2.36 µM	6.36 µM	1.86 µM	5 µM	4.33 µM	15.9 µM	2.03 µM	6.53 µM	1.48 µM	3.15 µM
COC(=O)[C@@H](C)C[C@H](Cc1ccccc1)NC(=O)c1csc(CC[C@H](C(C)C)N(C)C(=O)[C@@H](NC(=O)[C@H]2CCCCN2C)C(C)C)n1	0.381 µM	> 14.5 µM	0.324 µM	> 33.3 µM	1.27 µM	> 33.3 µM	0.435 µM	> 33.3 µM	0.44 µM	> 33.3 µM	0.211 µM	6.01 µM	0.179 µM	3.81 µM	> 33.3 µM	> 33.3 µM	0.604 µM	> 33.3 µM	0.398 µM	> 33.3 µM
COc1cc(OC)cc(N(CCNC(C)C)c2ccc3ncc(-c4cnn(C)c4)nc3c2)c1	5.25 µM	18.1 µM	7.53 µM	21.8 µM	5.33 µM	19.1 µM	3.96 µM	15.9 µM	2.99 µM	12 µM	3.72 µM	15.7 µM	2.78 µM	17.9 µM	9.49 µM	23.4 µM	3.34 µM	13.5 µM	4.32 µM	19.6 µM
CCc1cccc(C)c1NC(=O)c1sc2nc3c(cc2c1N)CCCCC3	3.52 µM	26.6 µM	3.46 µM	> 100 µM	4.14 µM	> 100 µM	6 µM	> 100 µM	4.56 µM	> 100 µM	3.26 µM	24.7 µM	5.18 µM	54.9 µM	18.2 µM	> 100 µM	3.17 µM	> 100 µM	3.62 µM	80.9 µM
COc1cc(C#Cc2ccc(=O)oc2C#Cc2ccccc2)cc(OC)c1OC	3.94 µM	16.4 µM	15.1 µM	44.8 µM	10.3 µM	43.9 µM	1.75 µM	3.5 µM	3.43 µM	> 45.1 µM	2.44 µM	6.6 µM	1.97 µM	4.21 µM	6.81 µM	15.6 µM	2.31 µM	5.1 µM	1.9 µM	3.6 µM
FC(F)(F)c1nc2nc(Cl)c(Cl)nc2n1CCCN1CCOCC1	–	> 100 µM	–	> 100 µM	–	> 100 µM	–	> 100 µM	–	48.6 µM	–	> 100 µM	–	> 100 µM	–	64 µM	–	> 100 µM	–	> 100 µM
COC(=O)CCc1c[nH]c2ccc(N(CCCl)CCCl)cc12	0.322 µM	12.9 µM	10.6 µM	36.1 µM	1.51 µM	> 100 µM	0.688 µM	36.4 µM	0.826 µM	> 100 µM	2.3 µM	44.7 µM	8.52 µM	41.5 µM	5.21 µM	34.3 µM	3.16 µM	> 59.3 µM	1.31 µM	25.1 µM
CC(=O)OCC1OC(n2c(-c3ccc(Cl)cc3)ccc(C#N)c2=S)C(OC(C)=O)C(OC(C)=O)C1OC(C)=O (stereo unspecified)	–	> 100 µM	–	> 100 µM	–	> 100 µM	–	> 100 µM	–	> 100 µM	–	> 100 µM	15.9 µM and 35 µM	38.9 µM and > 100 µM	–	> 100 µM	–	> 100 µM	10.4 µM and 61.4 µM	40 µM and > 100 µM
Nc1ccc(C2=NN(c3ccccc3)C(c3ccc(Cl)cc3)C2)cc1 (stereo unspecified)	3.94 µM	16.3 µM	1.68 µM	3.11 µM	2.45 µM	7.98 µM	1.85 µM	4.53 µM	2.23 µM	6.61 µM	1.96 µM	4.49 µM	2.21 µM	5.32 µM	3.13 µM	11.2 µM	2.62 µM	7.9 µM	1.47 µM	2.79 µM
Cc1cnc(NC(=O)Nc2cc(Br)c(C)cc2OC[C@@H]2CNCCO2)cn1	1.47 µM and 0.928 µM	> 10 µM and 5.79 µM	1.2 µM and 1.19 µM	> 10 µM and 11.9 µM	1.71 µM and 1.93 µM	> 10 µM and 15.8 µM	3.8 µM and 2.5 µM	> 10 µM and 12.1 µM	0.445 µM and 0.368 µM	> 10 µM and 3.9 µM	1.95 µM and 2.59 µM	> 10 µM and 10.1 µM	1.28 µM and 1.29 µM	> 10 µM and 13.6 µM	1.59 µM and 2.44 µM	3.59 µM and 8.37 µM	1.65 µM and 2.38 µM	> 10 µM and 12.8 µM	2.44 µM and 3.07 µM	> 10 µM and 13.9 µM
COc1cc(/C=C2\C(=O)Nc3cc(C)c(O)cc32)cc(OC)c1OC	3.2 µM	11.7 µM	2.62 µM	11.4 µM	6.13 µM	> 79.6 µM	6.07 µM	23.1 µM	3.32 µM	16.7 µM	4.01 µM	> 39.6 µM	1.86 µM	6.26 µM	13.5 µM	42.7 µM	2.84 µM	14.5 µM	3.54 µM	16.1 µM
COc1ccc(S(=O)(=O)N2CC(C)(C)CN(S(=O)(=O)c3ccc(OC)cc3)C2C(=O)NO)cc1	> 20 µM	> 20 µM	> 20 µM	> 20 µM	> 20 µM	> 20 µM	> 20 µM	> 20 µM	> 11 µM	> 20 µM	> 20 µM	> 20 µM	> 20 µM	> 20 µM	> 19.1 µM	> 20 µM	> 20 µM	> 20 µM	> 20 µM	> 20 µM
CCOC(=O)N1CCN(c2nc(Nc3cc(C)[nH]n3)c3ccccc3n2)CC1	4.42 µM	26.4 µM	0.479 µM	23.1 µM	7.6 µM	28.8 µM	2.24 µM	52 µM	15.5 µM	42.7 µM	2.49 µM	21.2 µM	3.85 µM	16.2 µM	16.3 µM	52.6 µM	0.992 µM	> 100 µM	2.13 µM	23.5 µM
OCc1ccc(-c2ccc(-c3ccc(CO)o3)[se]2)o1	> 72.7 µM	> 100 µM	> 74.3 µM	> 100 µM	> 59.8 µM	> 100 µM	> 100 µM	> 100 µM	41.2 µM	> 100 µM	> 95 µM	> 100 µM	46.4 µM	> 100 µM	1.49 µM	> 20.8 µM	> 100 µM	> 100 µM	> 76.4 µM	> 100 µM
CCC[CH2][Sn]([CH2]CCC)([CH2]CCC)[O]c1ccc(Cl)cc1Cl	0.0977 µM	0.25 µM	0.0939 µM	0.244 µM	0.159 µM	0.345 µM	0.142 µM	0.303 µM	0.165 µM	2.77 µM	0.118 µM	0.293 µM	0.154 µM	0.315 µM	0.154 µM	0.305 µM	0.156 µM	0.333 µM	0.146 µM	0.297 µM
COc1cc(-c2cc3ncccc3c3nc(N)c4cccnc4c23)cc(OC)c1OC	0.408 µM	16.8 µM	0.36 µM	33.4 µM	0.434 µM	12.9 µM	1.01 µM	> 100 µM	0.604 µM	8.05 µM	0.0762 µM	15.5 µM	0.285 µM	1.88 µM	2.08 µM	44.7 µM	0.44 µM	61.9 µM	0.553 µM	16.9 µM
Cc1cc(S(=O)(=O)Nc2nc3cscc3c(=O)n2Cc2ccccc2)c(S)cc1Cl	28.8 µM	> 100 µM	21.9 µM	74.7 µM	42.4 µM	> 100 µM	16.6 µM	54.5 µM	3.94 µM	32.5 µM	47.9 µM	> 100 µM	81.1 µM	> 100 µM	> 100 µM	> 100 µM	56.8 µM	> 100 µM	34.9 µM	> 100 µM
COc1ccc2c(c1)C(=O)c1c-2n(CCCN=[N+]=[N-])c(=O)c2cc(OC)c(OC)cc12	7.99 µM	> 100 µM	> 100 µM	> 100 µM	33 µM	> 100 µM	64.7 µM	> 100 µM	10.6 µM	23.5 µM	> 100 µM	> 100 µM	> 100 µM	> 100 µM	> 100 µM	> 100 µM	> 100 µM	> 100 µM	24.2 µM	> 100 µM
CN[C@H]1C=C[C@@H]2/C=C(C)/C=C/[C@@H](C)[C@H]([C@H](C)[C@H](O)[C@@H](C)NC(C)=O)OC(=O)/C=C/C=C(C)\C=C\[C@]2(C)C1	0.0107 µM	> 49 µM	0.00963 µM	> 49 µM	0.0049 µM	> 49 µM	0.00633 µM	> 49 µM	16.6 µM	> 49 µM	< 0.001 µM and 0.0049 µM	> 49 µM	0.0049 µM	> 49 µM	–	> 49 µM	0.0906 µM and 0.0814 µM	> 49 µM	< 0.001 µM and 0.0049 µM	> 49 µM
S=C(Nc1ccc(Br)cc1)Nc1ccc(Br)cc1	3.69 µM	> 100 µM	3.63 µM	> 100 µM	5.8 µM	> 100 µM	9.72 µM	> 100 µM	6.59 µM	> 100 µM	7.22 µM	> 100 µM	44.2 µM	> 100 µM	7.86 µM	> 100 µM	3.35 µM	> 100 µM	8.39 µM	> 100 µM
COc1ccc(C(=O)/C=C/c2ccc(C)cc2)cc1OC	7.77 µM	20.5 µM	5.68 µM	19 µM	11.2 µM	26 µM	13.1 µM	26.9 µM	16.6 µM	47.2 µM	3.93 µM	15.3 µM	14.9 µM	51.5 µM	16.2 µM	30.3 µM	8.52 µM	22.1 µM	4.78 µM	17.3 µM

— PubChem BioAssay (NCI)
